Experimental data reported in patent publication US10800816B2 (Baxalta GmbH, priority 2012, dated 2020).
“Also recorded” adds a separate entry of the source. Where a SMILES comes first, the peptide text is derived from it. Bridges are numbered along the chain shown (N, C = ends). [ ]: non-standard residue; d: D form. Tle = CC(C)(C)[C@H](N)C(=O)O; Aib = CC(C)(N)C(=O)O

Columns and labels:
[1] = human, plasma, 24 h
[2] = mouse, 24 h
[3] = test system: FVIII-inhibited whole blood; assay: Rotation thromboelastography (ROTEM) in whole blood; design: species or system human; details: Hem A / FVIII-inhibited human whole blood
Description: Continuous visco-elastic assessment of human whole blood clot formation and firmness was performed by rotation thromboelastography with whole blood preparations in the presence or absence of peptides. […] Test samples were prepared by dissolving quantities of peptides in either DMSO or HEPES buffered saline (with or without 0.1% Tween 80).
Recordings were made using a ROTEM thromboelastography coagulation analyzer (Pentapharm, Munich, Germany) at 37° C. Briefly, blood is added into a disposable cuvette in a heated cuvette holder. A disposable pin (sensor) is fixed on the tip of a rotating axis. The axis is guided by a high precision ball bearing system and rotates back and forth. The axis is connected with a spring for the measurement of elasticity. The exact position of the axis is detected by the reflection of light on a small mirror on the axis. The loss of elasticity when the sample clots leads to a change in the rotation of the axis. The data obtained are computer analyzed and visualized in a thromboelastogram. […] An elasticity of approximately zero is observed before clot formation begins. Mirror image traces above and below the zero line indicate the effect of clot formation on the rotation of the axis.
The analytical set-up was as follows: to 20 μL of test sample or control, 300 μL of pre-warmed (37° C.) CTI treated citrated whole blood was added, followed by 20 μL of a 1:15 dilution of TF PRP reagent containing recombinant human tissue factor (rTF, 3 pM) (TS40, Thrombinoscope BV, Maastricht, The Netherlands). Coagulation was initiated by the addition of 20 μ200 mM CaCl2 (star-TEM®, Pentapharm, Munich, Germany) and recordings were allowed to proceed for at least 120 min. The final concentration of rTF in the assay was 11 or 44 fM.
The thromboelastographic parameters of clotting time (CT), clot formation time (CFT) and maximum clot firmness (MCF) were recorded in accordance with the manufacturer's instructions. CT is defined as the time from the start of measurement to the start of clot formation. CFT is defined as the time from the start of clot formation until an amplitude of 20 mm is reached. MCF is the maximum difference in amplitude between the two traces during the assay. The first derivative of the data of the thromboelastogram are plotted to obtain a graph of velocity (mm/s) against time (s). From this graph, the maximum velocity (maxV) is determined. The time at which the maximum velocity is obtained (maxV-t) is also determined.
This example describes a method for assessing clot formation in whole blood using rotation thromboelastography (ROTEM). The assay was performed as described in Example 8. The analytical set-up was as follows: 300 μL of pre-warmed (37° C.) CTI treated citrated whole blood was added to a peptide sample (10, 100, 1000 nM final assay concentration) or a control, followed by addition of a 1:15 dilution of TF PRP reagent containing recombinant human tissue factor (rTF, 3 pM) (TS40, Thrombinoscope BV, Maastricht, The Netherlands). In certain experiments, exogenous full length TFPI (flTFPI) at final concentrations of 2 or 10 nM was added to simulate flTFPI plasma levels of up to 50-fold over normal. Coagulation was initiated by the addition of 20 μL 200 mM CaCl2 (star-TEM®, Pentapharm, Munich, Germany) and recordings were allowed to proceed for at least 120 min. The final concentration of rTF in the assay was 44 fM. The thromboelastographic parameters of clotting time (CT), clot formation time (CFT) and maximum clot firmness (MCF) were recorded in accordance with the manufacturer's instructions. CT is defined as the time from the start of measurement to the start of clot formation. CFT is defined as the time from the start of clot formation until an amplitude of 20 mm is reached. MCF is the maximum difference in amplitude between the two traces during the assay.

in vitro = details: human, plasma
[4] = test system: Tissue Factor Pathway Inhibitor (TFPI); assay: IC50 ELISA | Mean IC50 [nM]
Description: Table printed on a drawing sheet, FIGURE 78V
Head of the field: IC50 ELISA | Mean IC50 [nM]

TFPI [5] = assay: % Inhibition @ 2.5µM
TFPI [6] = assay: FXa Inhibition assay | EC50 (µM)
TFPI [7] = assay: % Inhibition @ 0.63µM
[8] = test system: Tissue Factor Pathway Inhibitor (TFPI); assay: IC50 ELISA | Mean IC50 [nM]; remark: listed apart in the source
[9] = test system: Tissue Factor Pathway Inhibitor (TFPI); assay: IC50 ELISA | IC50 [nM]
Description: Table printed on a drawing sheet, FIGURE 78G
Head of the field: IC50 ELISA | IC50 [nM]

TFPI [10] = assay: Extrinsic Tenase Inhibition assay | % Inhibition @ 2.5μM

In the case of `CC(=O)N[C@@H](Cc1ccccc1)C(=O)N[C@@H](CCC(N)=O)C(=O)N[C@@H](CO)C(=O)N[C@@H](CCCCN)C(=O)N1CCC[C@@H]1C(=O)N[C@@H](CC(N)=O)C(=O)N[C@H](C(=O)N[C@@H](Cc1cnc[nH]1)C(=O)N[C@H](C(=O)N[C@@H](CC(=O)O)C(=O)NCC(=O)N[C@@H](Cc1ccc(O)cc1)C(=O)N[C@@H](Cc1ccccc1)C(=O)N[C@@H](CCC(=O)O)C(=O)N[C@@H](CCCNC(=N)N)C(=O)N[C@@H](CC(C)C)C(=O)NC(C)(C)C(=O)N[C@@H](C)C(=O)N[C@@H](CCCCN)C(=O)N[C@@H](CC(C)C)C(N)=O)C(C)C)C(C)C` [JBT1857], the “percentage of original amount of peptide remaining” value [1] is reported as 27%, the “percentage of initial amount of peptide remaining in plasma” value [2] is reported as under 10% and the “percentage of initial amount of peptide remaining” value ([2]; plasma) is reported as “Less than 5%”. For the same compound, the coagulation parameters [3] was “restored coagulation parameters in Hem A blood; also recorded: positively impacted blood coagulation parameters, but performed less efficiently than JBT1837” and the remaining at 24 h (in vitro) was 27%.

In the case of `CC(=O)N[C@@H](Cc1ccccc1)C(=O)N[C@@H](CCC(N)=O)C(=O)N[C@@H](CO)C(=O)N[C@@H](CCCCN)C(=O)N1CCC[C@@H]1C(=O)N[C@@H](CC(N)=O)C(=O)N[C@H](C(=O)N[C@@H](Cc1c[nH]cn1)C(=O)N[C@H](C(=O)N[C@@H](CC(=O)O)C(=O)N[C@@H]1CSSC[C@@H](C(=O)N[C@@H](CCCNC(=N)N)C(=O)N[C@@H](CC(C)C)C(=O)NC(C)(C)C(=O)N[C@@H](C)C(=O)N[C@@H](CCCCN)C(=O)N[C@@H](CC(C)C)C(N)=O)NC(=O)[C@H](Cc2ccccc2)NC(=O)[C@H](Cc2ccc(O)cc2)NC1=O)C(C)(C)C)C(C)C` [JBT00002495, Ac-FQSKpNVH-Tle-D[cYFC]RL-Aib-AKL-NH2] (Ac-FQSK[dP]NVH[Tle]D[dC]YFCRL[Aib]AKL-NH2; disulfide 11-14), the IC50 [4] is reported as 3.36 nM.

With “Ac-FQSKKAVFVFGYFERLRAKL-NH2 (SEQ ID NO: 288) [JBT0696]” the “% Inhibition @ […]” value (TFPI [5]) was 48%, the EC50 (TFPI [6]) was 710 nM and the “% Inhibition @ […]” value (TFPI [7]) was 26%.

For “Ac-FQSKaNVFVFGYFERLRAKL-NH2 (SEQ ID NO: 53) (Ac-FQSK[dA]NVFVFGYFERLRAKL-NH2; SMILES CC(=O)N[C@@H](Cc1ccccc1)C(=O)N[C@@H](CCC(N)=O)C(=O)N[C@@H](CO)C(=O)N[C@@H](CCCCN)C(=O)N[C@H](C)C(=O)N[C@@H](CC(N)=O)C(=O)N[C@H](C(=O)N[C@@H](Cc1ccccc1)C(=O)N[C@H](C(=O)N[C@@H](Cc1ccccc1)C(=O)NCC(=O)N[C@@H](Cc1ccc(O)cc1)C(=O)N[C@@H](Cc1ccccc1)C(=O)N[C@@H](CCC(=O)O)C(=O)N[C@@H](CCCNC(=N)N)C(=O)N[C@@H](CC(C)C)C(=O)N[C@@H](CCCNC(=N)N)C(=O)N[C@@H](C)C(=O)N[C@@H](CCCCN)C(=O)N[C@@H](CC(C)C)C(N)=O)C(C)C)C(C)C) [JBT0663]”, the “% Inhibition @ […]” value (TFPI [5]) was 81%, the EC50 (TFPI [6]) was 290 nM and the “% Inhibition @ […]” value (TFPI [7]) was 60%.

For “Ac-FQSKaNVFVTGYFARLRAKL-NH2 (SEQ ID NO: 54) (Ac-FQSK[dA]NVFVTGYFARLRAKL-NH2; SMILES CC(=O)N[C@@H](Cc1ccccc1)C(=O)N[C@@H](CCC(N)=O)C(=O)N[C@@H](CO)C(=O)N[C@@H](CCCCN)C(=O)N[C@H](C)C(=O)N[C@@H](CC(N)=O)C(=O)N[C@H](C(=O)N[C@@H](Cc1ccccc1)C(=O)N[C@H](C(=O)N[C@H](C(=O)NCC(=O)N[C@@H](Cc1ccc(O)cc1)C(=O)N[C@@H](Cc1ccccc1)C(=O)N[C@@H](C)C(=O)N[C@@H](CCCNC(=N)N)C(=O)N[C@@H](CC(C)C)C(=O)N[C@@H](CCCNC(=N)N)C(=O)N[C@@H](C)C(=O)N[C@@H](CCCCN)C(=O)N[C@@H](CC(C)C)C(N)=O)[C@@H](C)O)C(C)C)C(C)C) [JBT0668]”, the “% Inhibition @ […]” value (TFPI [5]) was 70%, the EC50 (TFPI [6]) was 520 nM and the “% Inhibition @ […]” value (TFPI [7]) was 43%.

For “Ac-FQSKp-C(Acm)-VH-Tle-D[cY-Bta--Hcy-]RL-Aib-AKL- NH2 [JBT00002501]”, the IC50 [8] was 6.31 nM.

With “Ac-FQSKp-C(NEM)-VH-Tle-DaY-Bta-ERL-Aib-AKL-NH2 [JBT00002502]” the IC50 [8] was 3.89 nM.

“Ac-FQSKp-Nmn-VHVDGYFERL-Aib-AKL-NH2 [JBT00002287]” showed an IC50 [9] of over 500 nM.

For “Ac-FQSKpN-Chg-H-Chg-DGYFERL-Aib-AKL-NH2 [JBT00002295]”, the IC50 [9] was over 5000 nM.

Compound “Ac-FQSKpN-Phg-H-Phg-DGYFERL-Aib-AKL-NH2 [JBT00002298]” has an IC50 [9] of over 5000 nM.

For “Ac-FQSKpNVH-Tle-D-hcy-YF-Hcy-RL-Aib-AKL-NH2 [JBT00002497]”, the IC50 [4] was 7.16 nM.

“Ac-FQSKpNVH-Tle-D-hcy-YFCRL-Aib-AKL-NH2 [JBT00002498]” gave an IC50 [4] of 7.59 nM.

With “Ac-FQSKpNVH-Tle-DcY-Bta--Hcy-RL-Aib-AKL-NH2 [JBT00002500]” the IC50 [8] was 5.26 nM.

With “Ac-SRYKWFCGMRDMKGTMSAVWVKF-NH2 (SEQ ID NO: 1160) [JBT0454]” the “Extrinsic Tenase Inhibition assay | % Inhibition @ […]” value (TFPI [10]) was 0%.

For “Ac-SRYKWFGM[CRDMKGTMSC]VWVKF-NH2 (SEQ ID NO: 1233) (Ac-SRYKWFGMCRDMKGTMSCVWVKF-NH2; disulfide 9-18; SMILES CSCC[C@H](NC(=O)CNC(=O)[C@H](Cc1ccccc1)NC(=O)[C@H](Cc1c[nH]c2ccccc12)NC(=O)[C@H](CCCCN)NC(=O)[C@H](Cc1ccc(O)cc1)NC(=O)[C@H](CCCNC(=N)N)NC(=O)[C@H](CO)NC(C)=O)C(=O)N[C@H]1CSSC[C@@H](C(=O)N[C@H](C(=O)N[C@@H](Cc2c[nH]c3ccccc23)C(=O)N[C@H](C(=O)N[C@@H](CCCCN)C(=O)N[C@@H](Cc2ccccc2)C(N)=O)C(C)C)C(C)C)NC(=O)[C@H](CO)NC(=O)[C@H](CCSC)NC(=O)[C@H]([C@@H](C)O)NC(=O)CNC(=O)[C@H](CCCCN)NC(=O)[C@H](CCSC)NC(=O)[C@H](CC(=O)O)NC(=O)[C@H](CCCNC(=N)N)NC1=O) [JBT0462]”, the “Extrinsic Tenase Inhibition assay | % Inhibition @ […]” value (TFPI [10]) was 0%.

With “Ac-SRYKWF[CGMADMKGTMSC]VWVKF-NH2 (SEQ ID NO: 1079) (Ac-SRYKWFCGMADMKGTMSCVWVKF-NH2; disulfide 7-18; SMILES CSCC[C@@H]1NC(=O)CNC(=O)[C@@H](NC(=O)[C@H](Cc2ccccc2)NC(=O)[C@H](Cc2c[nH]c3ccccc23)NC(=O)[C@H](CCCCN)NC(=O)[C@H](Cc2ccc(O)cc2)NC(=O)[C@H](CCCNC(=N)N)NC(=O)[C@H](CO)NC(C)=O)CSSC[C@@H](C(=O)N[C@H](C(=O)N[C@@H](Cc2c[nH]c3ccccc23)C(=O)N[C@H](C(=O)N[C@@H](CCCCN)C(=O)N[C@@H](Cc2ccccc2)C(N)=O)C(C)C)C(C)C)NC(=O)[C@H](CO)NC(=O)[C@H](CCSC)NC(=O)[C@H]([C@@H](C)O)NC(=O)CNC(=O)[C@H](CCCCN)NC(=O)[C@H](CCSC)NC(=O)[C@H](CC(=O)O)NC(=O)[C@H](C)NC1=O) [JBT0446]” the “Extrinsic Tenase Inhibition assay | % Inhibition @ […]” value (TFPI [10]) was 46%.
